In paper PMC8698521 (RSC Advances, 2021):

How the values were obtained:
Test in all cases: Glycosidase inhibition, spectrophotometric p-nitrophenyl glycoside assay
[1] = tested on: β-Glucosidase from almonds; settings: 1 mM inhibitor; 37 °C, 30 min; NI = no inhibition up to 20 mM
[2] = target: T1, α-Mannosidase from jack bean (Canavalia ensiformis, UniProt C0HJB3); settings: for inhibition at 1000 µM: pH 4.5, read-out: Percentage inhibition (%) at 1 mM concentration of the inhibitor
T1 sequence (C0HJB3 1-981): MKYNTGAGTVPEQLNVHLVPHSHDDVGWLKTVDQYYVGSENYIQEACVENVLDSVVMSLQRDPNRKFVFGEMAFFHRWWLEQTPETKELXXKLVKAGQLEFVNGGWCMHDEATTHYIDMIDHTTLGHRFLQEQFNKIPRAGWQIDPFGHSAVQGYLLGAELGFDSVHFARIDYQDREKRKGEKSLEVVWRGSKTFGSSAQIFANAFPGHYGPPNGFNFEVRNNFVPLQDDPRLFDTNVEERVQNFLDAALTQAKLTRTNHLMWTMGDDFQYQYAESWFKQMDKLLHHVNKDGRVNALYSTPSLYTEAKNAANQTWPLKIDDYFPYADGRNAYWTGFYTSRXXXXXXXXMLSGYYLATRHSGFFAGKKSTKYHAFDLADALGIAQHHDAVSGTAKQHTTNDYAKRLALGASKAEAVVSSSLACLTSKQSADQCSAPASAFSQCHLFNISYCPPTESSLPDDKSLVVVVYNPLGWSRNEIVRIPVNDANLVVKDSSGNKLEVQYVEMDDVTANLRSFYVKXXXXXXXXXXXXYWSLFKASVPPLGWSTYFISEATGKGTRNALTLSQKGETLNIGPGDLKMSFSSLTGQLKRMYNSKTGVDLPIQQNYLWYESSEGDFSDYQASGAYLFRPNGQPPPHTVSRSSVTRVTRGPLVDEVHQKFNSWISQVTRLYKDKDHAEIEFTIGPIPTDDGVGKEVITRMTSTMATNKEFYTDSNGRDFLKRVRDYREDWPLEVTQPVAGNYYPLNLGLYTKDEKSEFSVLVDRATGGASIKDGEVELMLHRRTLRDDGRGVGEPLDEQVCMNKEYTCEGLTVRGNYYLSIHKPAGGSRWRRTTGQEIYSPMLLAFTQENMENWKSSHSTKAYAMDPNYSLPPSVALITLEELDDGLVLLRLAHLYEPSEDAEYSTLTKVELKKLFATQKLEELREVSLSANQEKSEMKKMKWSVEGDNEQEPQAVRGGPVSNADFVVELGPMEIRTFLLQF

[3] = target: α-Glucosidase from Saccharomyces cerevisiae (Saccharomyces cerevisiae, UniProt P53341); settings: pH 7.2, read-out: Percentage inhibition (%) at 1 mM concentration of the inhibitor
[4] = target: α-Galactosidase from green coffee beans (Coffea arabica, UniProt Q42656)
[5] = tested on: β-Mannosidase from Helix pomatia
[6] = target: T2, β-Galactosidase from Aspergillus oryzae (Aspergillus oryzae, UniProt Q2UCU3)
T2 sequence (Q2UCU3 19-1005): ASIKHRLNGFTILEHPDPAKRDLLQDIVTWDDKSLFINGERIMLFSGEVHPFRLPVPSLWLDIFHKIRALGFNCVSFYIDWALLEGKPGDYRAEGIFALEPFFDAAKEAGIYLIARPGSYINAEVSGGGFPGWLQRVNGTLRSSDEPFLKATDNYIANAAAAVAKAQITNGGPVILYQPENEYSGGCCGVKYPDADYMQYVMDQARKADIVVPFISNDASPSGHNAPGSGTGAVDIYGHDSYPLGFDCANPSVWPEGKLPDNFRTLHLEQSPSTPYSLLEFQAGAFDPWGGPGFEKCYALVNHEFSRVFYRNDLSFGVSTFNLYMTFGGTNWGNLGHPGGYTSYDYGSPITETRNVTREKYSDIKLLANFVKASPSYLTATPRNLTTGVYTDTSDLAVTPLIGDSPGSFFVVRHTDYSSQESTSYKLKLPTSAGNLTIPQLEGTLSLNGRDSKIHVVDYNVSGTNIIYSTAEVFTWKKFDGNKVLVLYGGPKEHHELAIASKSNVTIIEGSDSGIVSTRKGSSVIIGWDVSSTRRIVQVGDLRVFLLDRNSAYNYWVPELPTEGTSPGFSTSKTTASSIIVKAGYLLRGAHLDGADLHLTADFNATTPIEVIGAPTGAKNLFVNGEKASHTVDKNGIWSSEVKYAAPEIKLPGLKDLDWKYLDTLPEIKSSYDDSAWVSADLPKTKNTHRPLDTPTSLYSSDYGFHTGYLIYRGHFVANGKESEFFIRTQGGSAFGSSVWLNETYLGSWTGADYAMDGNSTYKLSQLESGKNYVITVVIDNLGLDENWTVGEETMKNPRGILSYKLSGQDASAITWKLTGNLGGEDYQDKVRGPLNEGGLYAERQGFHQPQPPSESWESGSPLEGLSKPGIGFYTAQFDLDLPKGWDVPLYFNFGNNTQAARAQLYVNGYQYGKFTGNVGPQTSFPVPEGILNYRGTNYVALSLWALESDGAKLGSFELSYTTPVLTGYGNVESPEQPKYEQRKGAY

Sequence of α-Glucosidase from Saccharomyces cerevisiae (P53341 whole entry): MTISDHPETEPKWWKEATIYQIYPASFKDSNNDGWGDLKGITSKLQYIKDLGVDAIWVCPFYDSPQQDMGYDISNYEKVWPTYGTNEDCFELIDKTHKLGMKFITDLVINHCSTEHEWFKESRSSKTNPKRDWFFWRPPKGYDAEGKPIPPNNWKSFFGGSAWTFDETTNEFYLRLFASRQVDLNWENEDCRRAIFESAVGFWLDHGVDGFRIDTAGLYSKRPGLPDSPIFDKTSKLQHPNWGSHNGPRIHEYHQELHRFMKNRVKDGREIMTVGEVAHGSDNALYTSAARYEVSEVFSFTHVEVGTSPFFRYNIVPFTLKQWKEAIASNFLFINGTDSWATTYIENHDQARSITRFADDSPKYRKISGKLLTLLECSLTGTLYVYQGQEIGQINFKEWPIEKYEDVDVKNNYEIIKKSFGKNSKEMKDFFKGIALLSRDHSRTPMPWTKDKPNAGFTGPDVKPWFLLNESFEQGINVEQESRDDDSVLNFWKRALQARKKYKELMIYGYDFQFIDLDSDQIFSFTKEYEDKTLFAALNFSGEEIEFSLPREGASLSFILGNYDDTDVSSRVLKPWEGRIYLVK
Sequence of α-Galactosidase from green coffee beans (Q42656 16-378): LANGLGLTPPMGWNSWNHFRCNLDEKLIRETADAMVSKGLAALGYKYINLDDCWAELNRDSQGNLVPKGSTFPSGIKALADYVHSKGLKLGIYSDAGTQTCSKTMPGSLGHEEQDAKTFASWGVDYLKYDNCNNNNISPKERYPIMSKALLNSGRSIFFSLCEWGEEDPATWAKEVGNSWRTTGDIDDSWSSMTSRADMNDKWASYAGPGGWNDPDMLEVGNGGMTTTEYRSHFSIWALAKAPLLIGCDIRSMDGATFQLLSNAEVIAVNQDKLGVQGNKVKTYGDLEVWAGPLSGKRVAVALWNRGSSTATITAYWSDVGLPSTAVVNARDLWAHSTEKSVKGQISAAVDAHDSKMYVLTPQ

Structure (SMILES)	Percentage inhibition (%) at 1 mM concentration of the inhibitor [1]	inhibition as stated in text [2]	inhibition at 1000 µM [2]	inhibition at 1000 µM [3]	inhibition as stated in text [4]	inhibition at 1000 µM ([4]; pH 6.8, read-out: Percentage inhibition (%) at 1 mM concentration of the inhibitor)	inhibition as stated in text [5]	inhibition as stated in text [6]	inhibition at 1000 µM ([6]; pH 7.2, read-out: Percentage inhibition (%) at 1 mM concentration of the inhibitor)
C[C@H]1CC[C@@H](O)[C@@H](O)[C@@H](O)[C@@H]1O [Compound 15, (1R,2R,3S,4R,5S)-5-Methylcycloheptane-1,2,3,4-tetraol]	14.1%	inhibited	10.6%	19.5%					
OCC1=CC[C@@H](O)[C@@H](O)[C@@H](O)[C@@H]1O [Compound 6, (1R,2R,3S,4R)-5-(Hydroxymethyl)cyclohept-5-ene-1,2,3,4-tetraol]	3.2%			22.1%	inhibited	41.7%			
OCC1=CC[C@H](O)[C@@H](O)[C@@H](O)[C@@H]1O [Compound 5, (1S,2R,3S,4R)-5-(Hydroxymethyl)cyclohept-5-ene-1,2,3,4-tetraol]		inhibited	12.5%	3.3%					
O=C1CC=C(CO)[C@@H](O)[C@H](O)[C@@H]1O [Compound 4, (5R,6S,7S)-5,6,7-Trihydroxy-4-(hydroxymethyl)cyclohept-3-enone]	12.3%			41.1%			could inhibit		
C[C@@H]1CC[C@@H](O)[C@@H](O)[C@@H](O)[C@@H]1O [Compound 16, (1R,2R,3S,4R,5R)-5-Methylcycloheptane-1,2,3,4-tetraol]	29.8%	inhibited	35.1%					inhibits	12.8%
